Results on nine molecules are retold here after ChEMBL document CHEMBL1124620, “New 1,4-dihydropyridine derivatives combining calcium antagonism and alpha-adrenolytic properties” (J Med Chem, 1989).

Bounds are passed on as bounds.

Test [1] deals with T1, Adrenergic receptor alpha-2 (Homo sapiens, UniProt P08913+P18825+P18089).
T1 sequence (P08913 whole entry): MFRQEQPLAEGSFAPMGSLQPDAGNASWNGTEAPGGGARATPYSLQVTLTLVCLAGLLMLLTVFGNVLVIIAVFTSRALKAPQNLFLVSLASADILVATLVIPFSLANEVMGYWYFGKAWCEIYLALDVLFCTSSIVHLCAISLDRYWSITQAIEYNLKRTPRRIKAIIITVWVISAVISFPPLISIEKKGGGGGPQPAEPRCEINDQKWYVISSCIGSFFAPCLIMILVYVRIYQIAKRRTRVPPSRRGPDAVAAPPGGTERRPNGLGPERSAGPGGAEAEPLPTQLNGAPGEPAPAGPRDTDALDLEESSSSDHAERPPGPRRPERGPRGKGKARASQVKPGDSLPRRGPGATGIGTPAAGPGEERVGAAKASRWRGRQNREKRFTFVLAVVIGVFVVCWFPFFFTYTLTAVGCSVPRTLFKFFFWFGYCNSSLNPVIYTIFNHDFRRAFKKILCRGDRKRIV
T1 sequence (P18825 whole entry): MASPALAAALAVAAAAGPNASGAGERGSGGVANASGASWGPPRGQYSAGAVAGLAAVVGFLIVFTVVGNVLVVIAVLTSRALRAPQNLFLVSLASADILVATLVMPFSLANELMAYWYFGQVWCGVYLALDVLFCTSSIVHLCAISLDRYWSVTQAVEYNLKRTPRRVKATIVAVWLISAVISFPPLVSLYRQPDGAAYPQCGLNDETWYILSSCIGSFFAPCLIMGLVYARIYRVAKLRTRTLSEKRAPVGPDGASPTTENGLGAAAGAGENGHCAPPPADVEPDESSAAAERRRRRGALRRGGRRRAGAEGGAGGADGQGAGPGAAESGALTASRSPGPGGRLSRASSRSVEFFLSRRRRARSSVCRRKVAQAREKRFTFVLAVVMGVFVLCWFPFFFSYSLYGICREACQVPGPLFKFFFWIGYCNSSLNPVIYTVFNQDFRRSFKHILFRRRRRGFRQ
T1 sequence (P18089 whole entry): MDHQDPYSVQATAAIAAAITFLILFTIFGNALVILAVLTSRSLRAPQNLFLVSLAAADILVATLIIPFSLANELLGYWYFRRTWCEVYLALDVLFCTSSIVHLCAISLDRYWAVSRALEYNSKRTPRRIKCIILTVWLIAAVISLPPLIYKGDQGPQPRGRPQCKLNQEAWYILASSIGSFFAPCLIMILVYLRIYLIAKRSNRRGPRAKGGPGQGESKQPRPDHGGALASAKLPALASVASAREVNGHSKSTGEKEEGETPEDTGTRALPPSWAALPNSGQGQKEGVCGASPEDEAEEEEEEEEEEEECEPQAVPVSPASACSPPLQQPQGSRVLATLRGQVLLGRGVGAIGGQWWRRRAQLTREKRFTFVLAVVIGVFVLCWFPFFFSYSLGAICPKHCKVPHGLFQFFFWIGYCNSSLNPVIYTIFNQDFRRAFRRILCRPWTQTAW
Put plainly: In vitro ability to inhibit norepinephrine binding to alpha-2 adrenergic receptor of guinea pig vas deferens. The settings on record: target entry is the homologue from another species. Format: tissue-based, Cavia porcellus.

In test [2] the target is T2, Adrenergic receptor alpha-2 (Rattus norvegicus, UniProt P22086+P19328+P22909).
T2 sequence (P22086 whole entry): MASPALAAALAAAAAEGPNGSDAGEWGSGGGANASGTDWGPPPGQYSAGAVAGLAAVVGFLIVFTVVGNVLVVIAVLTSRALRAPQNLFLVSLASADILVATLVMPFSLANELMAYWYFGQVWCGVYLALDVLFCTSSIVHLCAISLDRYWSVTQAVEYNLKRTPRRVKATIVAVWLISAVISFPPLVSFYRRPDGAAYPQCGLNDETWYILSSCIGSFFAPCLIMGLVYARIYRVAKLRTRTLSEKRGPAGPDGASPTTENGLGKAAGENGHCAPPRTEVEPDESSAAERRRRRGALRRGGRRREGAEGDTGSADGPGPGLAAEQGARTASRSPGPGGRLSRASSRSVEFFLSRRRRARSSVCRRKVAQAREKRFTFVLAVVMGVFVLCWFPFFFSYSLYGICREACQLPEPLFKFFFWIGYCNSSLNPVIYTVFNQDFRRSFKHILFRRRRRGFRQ
T2 sequence (P19328 whole entry): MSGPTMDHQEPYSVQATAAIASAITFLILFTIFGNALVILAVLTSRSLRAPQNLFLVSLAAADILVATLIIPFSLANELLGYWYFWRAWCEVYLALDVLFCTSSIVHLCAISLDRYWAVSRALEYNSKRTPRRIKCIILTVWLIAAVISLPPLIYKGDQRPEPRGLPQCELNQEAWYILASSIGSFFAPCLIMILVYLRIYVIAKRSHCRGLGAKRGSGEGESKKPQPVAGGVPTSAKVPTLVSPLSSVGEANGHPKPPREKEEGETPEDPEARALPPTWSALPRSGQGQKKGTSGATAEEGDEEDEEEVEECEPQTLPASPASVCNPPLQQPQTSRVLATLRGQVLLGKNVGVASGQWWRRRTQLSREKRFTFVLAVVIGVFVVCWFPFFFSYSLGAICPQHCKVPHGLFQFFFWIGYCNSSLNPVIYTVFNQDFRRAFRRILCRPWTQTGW
T2 sequence (P22909 whole entry): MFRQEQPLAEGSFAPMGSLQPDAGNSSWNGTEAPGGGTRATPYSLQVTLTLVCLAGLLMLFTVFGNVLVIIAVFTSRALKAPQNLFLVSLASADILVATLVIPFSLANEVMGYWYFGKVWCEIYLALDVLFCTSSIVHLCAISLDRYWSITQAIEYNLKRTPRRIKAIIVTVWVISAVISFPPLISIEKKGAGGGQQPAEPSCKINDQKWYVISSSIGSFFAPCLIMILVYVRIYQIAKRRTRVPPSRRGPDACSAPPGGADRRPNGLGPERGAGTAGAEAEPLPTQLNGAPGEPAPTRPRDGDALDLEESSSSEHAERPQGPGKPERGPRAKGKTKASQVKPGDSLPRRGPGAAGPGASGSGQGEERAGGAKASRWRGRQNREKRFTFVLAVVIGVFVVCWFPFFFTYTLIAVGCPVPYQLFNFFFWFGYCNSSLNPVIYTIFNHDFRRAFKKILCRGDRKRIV
The test is described as follows: Alpha-2-adrenolytic activity was assessed from the ability to inhibit [3H]yohimbine binding to rat cerebral cortex preparation. It counts as tissue-based.

Test [3] addresses T1, Adrenergic receptor alpha-2. Put plainly: Alpha-2-adrenolytic activity was assessed in vitro from the ability to inhibit norepinephrine binding to guinea pig vas deferens. The settings on record: target entry is the homologue from another species. Set-up: species or system Cavia porcellus.

A word on the IC50: it is the concentration that gives 50% inhibition. Read a low IC50 as greater potency in that assay. Consider `CO/C(O)=C1\C(C)=NC(C)=C(C(=O)OCCN2CCC(n3c(O)nc4ccccc43)CC2)C1c1cccc([N+](=O)[O-])c1` (stereo not given), for which the IC50 in test [1] was >> 1e-6 M.
Consider `CO/C(O)=C1\C(C)=NC(C)=C(C(=O)OCCN(C)CC2COc3ccccc3O2)C1c1ccccc1[N+](=O)[O-]` (stereo not given), for which, in test [1], the IC50 is > 1e-06 M.
A word on the pA2: it is the negative logarithm of the molar antagonist concentration that doubles the agonist concentration needed for the same response. Higher therefore signals a more potent antagonist. In the case of `CO/C(O)=C1\C(C)=NC(C)=C(C(=O)OCCN(C)C(C)COc2ccccc2)C1c1cccc([N+](=O)[O-])c1.Cl` (stereo not given), the pA2 in test [1] amounted to 6.7.
On to `CC1=NC(C)=C(C(=O)OC(C)CN(C)CC2COc3ccccc3O2)C(c2cccc([N+](=O)[O-])c2)/C1=C(\O)OC(C)C.Cl` (stereo not given), for which the IC50 in test [2] was 2 µM; in test [3], >> 1e-6 M.
Regarding `CO/C(O)=C1\C(C)=NC(C)=C(C(=O)OC(C)CN(C)CC2COc3ccccc3O2)C1c1cccc([N+](=O)[O-])c1.Cl` (stereo not given), the IC50 in test [1] was >> 0.00001 M.
In the case of `CO/C(O)=C1\C(C)=NC(C)=C(C(=O)OCCN(C)C(c2ccccc2)C2CCCCC2)C1c1cccc([N+](=O)[O-])c1.Cl` (stereo not given), the IC50 in test [1] is on record as > 0.0001 M.
For the molecule `CO/C(O)=C1\C(C)=NC(C)=C(C(=O)OCCN(C)CC2COc3ccccc3O2)C1c1cccc([N+](=O)[O-])c1.Cl` (stereo not given), the IC50 in test [1] is > 1e-06 M.
On to `COC(=O)C1=C(C)NC(C)=C(C(=O)OCCN(C)C[C@H]2COc3ccccc3O2)[C@@H]1c1cccc([N+](=O)[O-])c1.Cl` (stereo in doubt; 6a), for which the IC50 in test [1] is recorded as >> 1e-6 M.
The same measure, in the same setting: the value for `COC(=O)C1=C(C)NC(C)=C(C(=O)OCCN(C)C[C@H]2COc3ccccc3O2)[C@@H]1c1cccc([N+](=O)[O-])c1.Cl` (stereo in doubt; 6b) was > 0.0001 M.
